One may read the EC50 as the midpoint of the concentration-response curve.

This experiment deals with ATF4 luciferase reporter. The experiment is described as follows: ATF4-Luc assay in HEK293T cells carrying the ATF4 luciferase reporter (in vitro model of VWMD). Conditions: Homo sapiens, HEK-293T, 1 μg/mL tunicamycin, 7 hours, luminescence (One Glo). In kind it is cell-based, human. The procedure, abridged:
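Compound at 200 nM and tunicamycin at 1 μg/mL were given together for 7 h to HEK293T cells stably transduced with an ATF4 5′-UTR-driven firefly luciferase reporter. Read-out by luminescence, reported as EC50.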
(A reporter such as luciferase makes a cellular process visible.)
Take `O=C(COc1ccc(Cl)c(F)c1)NC12CCC(C(=O)NCCOc3ccc(Cl)cc3)(CC1)C(O)C2` (stereo not drawn) [Compound 107, 4-[2-(4-chloro-3-fluorophenoxy)acetamido]-N-[2-(4-chlorophenoxy)ethyl]-2-hydroxybicyclo[2.2.2]octane-1-carboxamide]: the 50% effective concentration (EC50) is less than 250 nM. For the molecule `COc1ccc(CNC(=O)C23CCC(NC(=O)COc4ccc(Cl)c(F)c4)(CC2)CC3O)cc1` (stereo not drawn) [Compound 128, 4-[2-(4-chloro-3-fluorophenoxy)acetamido]-2-hydroxy-N-[(4-methoxyphenyl)methyl]bicyclo[2.2.2]octane-1-carboxamide], the EC50 was less than 250 nM.

As for `Cn1ccnc1CNC(=O)C12CC(NC(=O)COc3ccc(Cl)c(F)c3)(C1)C2` [Compound 186, 3-[2-(4-chloro-3-fluorophenoxy)acetamido]-N-[(1-methyl-1H-imidazol-2-yl)methyl]bicyclo[1.1.1]pentane-1-carboxamide], the EC50 was more than 2000 nM. To `CC(Cc1ccc(F)cc1)NC(=O)C12CC(NC(=O)COc3ccc(Cl)c(F)c3)(C1)C2` (stereo not drawn) [Compound 171, 3-[2-(4-chloro-3-fluorophenoxy)acetamido]-N-[1-(4-fluorophenyl)propan-2-yl]bicyclo[1.1.1]pentane-1-carboxamide] belongs 1000 to 2000 nM; to `O=C(COc1ccc(Cl)c(F)c1)NC12CCC(C(=O)NCc3cccc(OC(F)(F)F)c3)(CC1)C(O)C2` (stereo not drawn) [Compound 136, 4-[2-(4-chloro-3-fluorophenoxy)acetamido]-2-hydroxy-N-{[3-(trifluoromethoxy)phenyl]methyl}bicyclo[2.2.2]octane-1-carboxamide], 500 to 1000 nM. Regarding `Cc1ccsc1CNC(=O)C12CC(NC(=O)COc3ccc(Cl)c(F)c3)(C1)C2` [Compound 192, 3-[2-(4-chloro-3-fluorophenoxy)acetamido]-N-[(3-methylthiophen-2-yl)methyl]bicyclo[1.1.1]pentane-1-carboxamide], the half-maximal effective concentration (EC50) was more than 2000 nM.

The values are drawn from patent publication US10836725B2, “Modulators of the integrated stress pathway” (Calico Life Sciences LLC, priority 2016, dated 2020).
